Measurements taken from patent US4263309A, “Polycyclic triazoles used to inhibit allergic responses” (Beecham Group Limited, priority 1977, dated 1981).

Experiments:
[1] = test system: passive cutaneous anaphylaxis (PCA), ovalbumin challenge; test: Passive cutaneous anaphylaxis (PCA) in rats; type: in vivo, Male Wistar rats; conditions: S.C., PBS with NaHCO3, rat
Experimental: Serum containing heat labile homocytotropic anitbody was raised in rats to crystallized ovalbumin XOA by the method of Mota (I. Mota, Immunology, 7,681 [1964]) using Bordettela pertussis vaccine as adjuvant.
Passive cutaneous anaphylaxis (PCA) was carried out by a method based on that of Ovary and Bier, (A. Ovary and O. G. Bier, Proc. Soc. Exp. Biol. Med. 81, 584, [1952]) as modified by Goose and Blair. (Immunology 16, 749 (1969).
Male Wistar rats of 250-300 g. were given 0.1 ml. of each of six twofold serial dilutions of pooled antiserum in 0.9% saline injected intradermally into separate sites on their shaved backs. Later (72 hrs.) the animals were challenged by intravenous injection of 0.3 ml. of a 1% solution of ovalbumin in an isotonic solution of saline buffered with 0.05 M, pH 7.2, Sorenson Buffer (PBS), mixed with 0.2 ml. of a 5% solution of Pontamine Sky Blue (6BX C.I. 24410, Raymond A. Lamb, London) in isotonic saline. The rats were killed after 20 min and the diameter of the blue wheals at the antibody injection sites was measured on the outer surface of the skin. The starting dilution of the serum was adjusted so that there was no response, after challenge, at the injection site of the highest dilution and a maximum response at the lowest dilutions. Typically six twofold serial dilutions of the serum from 1/4 to 1/128 were used.
Compounds were tested for their ability to reduce the diameter of the wheals at those intradermal sites which in control animals gave less than maximum response. Each dose of the compound was administered to six rats at a measured time prior to intravenous challenge with ovalbumin. Control groups of six rats were given the same volume of carrier fluid (0.2 ml, 100 g^-1) at the same time prior to challenge.
The results were calculated as follows: % inhibition of PCA=100 (1-a/b) where a=the sum of the diameters of the wheals produced in the test animal at the sites of antibody dilutions as used in control groups and b=the mean sum of the diameters of the wheals produced in the control group of animals at those antibody sites where at least five out of six of the animals gave less than maximum response. A typical variations in the control group of animals was SEM±6%.

Oral LD50 toxicity = type: in vivo; conditions: rat, in vivo, Charles River Sprage Dawley CD strain male rats
Source text: (§1) Toxicity: Oral LD50 of the compound of example 1(d) in Charles River Sprage Dawley CD strain Male Rats: 980 mgkg^-1. LD50 data confidence limits: 95%, 548-1,413 mgkg^-1.

[2] = test system: Charles River Sprage Dawley CD strain Male Rats; test: Oral LD50 toxicity; type: in vivo; conditions: 95% confidence limits
Source text: as §1

Structure (SMILES): COc1ccc2c(c1)C(=O)c1nn[nH]c1C2=O [3(e), 4,9-Dihydro-4,9-dioxo-6-methoxy-1H-naphtho[2,3-d]-triazole]
- % Inhib PCA ([1]; 10 mins, 20 mg/kg): 61%
- % Inhib PCA ([1]; 30 mins, 20 mg/kg): 34%

Structure (SMILES): O=C1c2ccc(F)cc2C(=O)c2[nH]nnc21 [5(e), 4,9-Dihydro-4,9-dioxo-6-fluoro-1H-naphtho[2,3-d]-triazole]
- % Inhib PCA ([1]; 10 mins, 20 mg/kg): 90%
- % Inhib PCA ([1]; 30 mins, 20 mg/kg): 27%

Structure (SMILES): O=C1c2cccc([N+](=O)[O-])c2C(=O)c2[nH]nnc21 [Example 4, 4,9-Dihydro-4,9-dioxo-5-nitro-1H-naphtho-[2,3-d]-triazole]
- % Inhib PCA ([1]; 10 mins, 10 mg/kg): 44%
- % Inhib PCA ([1]; 30 mins, 10 mg/kg): 19%

Structure (SMILES): Cc1ccc2c(c1)C(=O)c1nn[nH]c1C2=O [2(d), 4,9-Dihydro-4,9-dioxo-6methyl-1H-naphtho[2,3-d]-triazole]
- % Inhib PCA ([1]; 10 mins, 20 mg/kg): 73%
- % Inhib PCA ([1]; 30 mins, 20 mg/kg): 57%

Structure (SMILES): Cc1cc2c(c([N+](=O)[O-])c1C)C(=O)c1nn[nH]c1C2=O [Example 6, 4,9-Dihydro-6,7-dimethyl-4,9-dioxo-5-nitronaphtho[2,3-d]-triazole]
- % Inhib PCA ([1]; 10 mins, 1 mg/kg): 66%
- % Inhib PCA ([1]; 30 mins, 1 mg/kg): 28%

Structure (SMILES): Cc1cc2c(cc1C)C(=O)c1[nH]nnc1C2=O [1(d), 4,9-dihydro-6,7-dimethyl-4,9-dioxo-1H-naphtho[2,3-d]-triazole]
- % Inhib PCA ([1]; 5 mins, 0.1 mg/kg): 30%
- % Inhib PCA ([1]; 5 mins, 0.2 mg/kg): 54%
- % Inhib PCA ([1]; 5 mins, 0.4 mg/kg): 61%
- % Inhib PCA ([1]; 5 mins, 0.8 mg/kg): 86%
- LD50 (Oral LD50 toxicity): 980 mg/kg
- LD50 data confidence limits: 95% [2]: 548-1,413 mgkg^-1

Structure (SMILES): O=C1c2ccccc2C(=O)c2[nH]nnc21 [Example 8, 4,9-Dihydro-4,9-dioxo-1H-naphtho[2,3-d]-triazole]
- % Inhib PCA ([1]; 5 mins, 1 mg/kg): 39%
- % Inhib PCA ([1]; 5 mins, 2 mg/kg): 82%
